Results reported in patent US6803233B2, “Model for Alzheimer's disease and other neurodegenerative diseases” (priority 2000, dated 2004).
Entries after “also recorded” stand apart in the source; their conditions may differ. Values belong to the compound of their own block, whether it stands above or below them. Square brackets hold non-standard residues; d marks the D form. Peptide text beside a SMILES is read from it. Nle = CCCC[C@H](N)C(=O)O

Key:
[1] = tested on: amyloid precursor protein (APP); experiment: Immunoblot of APP (antibody 22C11) in hippocampal slices from apoE-knockout mice; assay type: cell-based, mouse
Source text: Tissues were processed for immunoblotting and assessed by monoclonal antibody 22C11, which recognizes the N-terminal domain of amyloid precursor protein (APP). […] Whether this new product is due to proteolysis or changes in protein maturation is under investigation.

MAPK (ERK1/2) = experiment: Immunoblot with anti-active MAPK in cultured hippocampal slices; assay type: cell-based; conditions: 6 days
IL-10 = experiment: RT-PCR/northern blot of cytokine mRNA in cultured hippocampal slices; assay type: cell-based; conditions: ZPAD 20 μM, mevastatin 20 μM
p35 [2] = experiment: Immunoblot of p35/p25 in cultured rat hippocampal slices; assay type: cell-based; conditions: 6 days
Procedure: Hippocampal slices were collected, homogenized, and subjected to SDS-PAGE electrophoresis. Immunoblots were then probed with anti-p35 sera that were raised against the C-terminal domain of p35.
(§1) Cultures of hippocampal slices were prepared from 10-12 days old rats.

tau = experiment: Immunoblot of tau (tau-1, AT8) in cultured rat hippocampal slices; assay type: cell-based
Procedure: Immunoblotting was carried out by using anti-non phosphorylated tau antibody, tau-1 or anti-phosphorylated tau antibody, AT8.
as §1

TNF-alpha = experiment: RT-PCR/northern blot of cytokine mRNA in cultured hippocampal slices; assay type: cell-based; conditions: mevastatin 20 μM
Source text: FIG. 17. Messenger RNA levels of TNF-alpha are increased by interruption of cholesterol synthesis.
Levels of mRNA for the cytokines were quantified by RT-PCR and northern blot analysis, following protocols outlined in the RT-PCR kit (Ambion Inc.).

microglia = experiment: CD11b immunostaining of hippocampus of rats injected daily with statins; assay type: in vivo, rat; conditions: male Sprague-Dawley rats, 10 mg/kg i.p. daily for 39 days
Procedure: Brains were then removed, postfixed in perfusate for 5-6 hors, and cryoprotected in 15% sucrose/PB followed by 30% sucrose/PB (12-24 hours each) at 4° C. Coronal sections were cut at 20-30 μm by using a freezing microtome and collected into PBS. Immunostaining was performed as described for the in vitro experiments using monoclonal antibody CD11b that reacts with both active and non-active microglia.

tangle-like structures = experiment: AT8 immunostaining of cultured rat hippocampal slices; assay type: cell-based; conditions: for number of ZPAD-induced tangles in the presence of the inhibitor: hippocampal slices, ZPAD plus inhibitor, 6 days
Procedure: Cultured slices were stained with anti-phosphorylated tau antibody AT8.
as §1
Cultured rat hippocampal slices of 12 days in vitro were treated with 20 μM pravastatin for 6 days and processed from immunohistological studies with the monoclonal antibody AT8. The subiculum, CA1 field, and CA3 field of the hippocampus were examined by photomicroscopy.

TGF-beta = experiment: RT-PCR/northern blot of cytokine mRNA in cultured hippocampal slices; assay type: cell-based
cathepsin D = conditions: literature report; cited from earlier work
tau protein = conditions: literature report; cited from earlier work
p35 [3] = experiment: Immunoblot of p35 in hippocampal slices from apoE-knockout mice; assay type: cell-based; conditions: apoE-knockout mouse slices; mevastatin plus agent
reactive microglia = experiment: ED-1 immunocytochemistry of cultured brain explants; assay type: cell-based, rat; conditions: 6 days
Procedure: Immunocytochemical studies using the monoclonal antibody ED-1 that recognizes reactive microglia were used at 1:1000 dilution following standard immunohistochemical procedures. Microglial activation was determined by measuring cell numbers, optical density, and size of cell bodies using the program NIH Image. Brain tissue was cultured for 12 days and treated with ZPAD (20 μM) in the presence or absence of PD98059 (50 μM) for 6 days (FIG. 18). Cultured explants were then sliced and stained by using monoclonal antibody ED-1 which recognizes reactive microglia, a classical marker of inflammation. […] Cultured brain explants were then sliced and stained by using monoclonal antibody ED-1, a classical marker for reactive microglia and macrophages.

APP = experiment: Immunoblot of APP in hippocampal slices, mevastatin plus kinase inhibitors (Example 8); assay type: cell-based

SMILES: CC[C@H](C)C(=O)O[C@H]1CCC=C2C=C[C@H](C)[C@H](CC[C@@H]3C[C@@H](O)CC(=O)O3)[C@H]21 [mevastatin]
- levels of full length APP ([1]; mevastatin treatment): increased levels
- novel APP band with molecular weight slightly lower than native APP ([1]; mevastatin treatment): induced a novel band
- levels of full length APP ([1]; mevastatin treatment, listed as Mevastatin): markedly increased
- activated MAPK (ERK1/2) (MAPK (ERK1/2); hippocampal slices): activated; also recorded: increased; also recorded: activation
- mRNA levels of IL-10 (IL-10): increased
- levels of p35 (p35 [2]; hippocampal slices): significant decreases; also recorded: rapidly and markedly decreased; also recorded: reduced
- phosphorylated 33 kDa tau breakdown products (AT8 blot) (tau; rat hippocampal slices): markedly enhanced
- mRNA level of TNF-alpha (TNF-alpha): markedly increase
- microglial reactions (microglia): induced; also recorded: Induction of microglial reactions
- induction of AT8-immunoreactive tangle-like structures (tangle-like structures; rat hippocampal slices, agent applied for 6 days): moderately increased; also recorded: resulted in tangle-like structures
- mRNA levels of TGF-beta (TGF-beta; ZPAD 20 μM, mevastatin 20 μM): increased

SMILES: CCN(CC)CCCC(C)Nc1ccnc2cc(Cl)ccc12 (stereo not drawn) [chloroquine]
- enzymatically active cathepsin D (cathepsin D): increases in enzymatically active cathepsin D
- 29 kDa tau fragment (tau 29) (tau protein): delayed appearance of a 29 kDa fragment

SMILES: CCCC[C@@H](C=O)NC(=O)[C@H](CC(C)C)NC(=O)[C@H](CC(C)C)NC(C)=O [calpain inhibitor I, N-acetyl-leucyl-leucyl-norleucinal] (Ac-Leu-Leu-[Nle]-aldehyde)
- ZPAD-induced conversion of p35 to p25 in the presence of the inhibitor (p35 [2]; ZPAD plus inhibitor): significantly inhibited
- ZPAD-induced tau fragments (tau 15-35 / tau 29 and tau 40) in the presence of the inhibitor (tau; ZPAD plus inhibitor, 6 days, 2 separate experiments): almost completely blocked
- number of ZPAD-induced tangles in the presence of the inhibitor (tangle-like structures): significantly reduced

SMILES: CC(O)(CCO)CC(=O)O (stereo not drawn) [mevalonate]
- mevastatin-induced down regulation of p35 in the presence of the agent (p35 [3]): completely blocked
- effects of mevastatin on APP in the presence of the agent ([1]; mevastatin plus agent): completely blocked

- effects of mevastatin on APP in the presence of the inhibitor (APP): partially blocked
SMILES: COc1cccc(-c2cc(=O)c3ccccc3o2)c1N [PD98059, 2-2(Amino-3-methoxyphenyl)-4H-1-benzopyran-4-one]
- MAPK activation by mevastatin and ZPAD in the presence of the inhibitor (MAPK (ERK1/2)): blocked
- number of ZPAD-induced tangles in the presence of the inhibitor (tangle-like structures): significantly reduced
- ZPAD-induced reaction of microglia with co-application of the inhibitor (reactive microglia; ZPAD 20 μM plus PD98059 50 μM): completely blocked
- reaction of microglia (ED-1 staining) (reactive microglia; ZPAD 20 μM, mevastatin 20 μM or PD98059 50 μM alone): did not induce evident change in microglia
- mRNA levels for certain cytokines (FIG. 16) (TGF-beta; PD98059 treatment): decreased
